# Laboratory results: PMC12751141, “Disrupting α-Synuclein–ClpP interaction restores mitochondrial function and attenuates neuropathology in Parkinson’s disease models” (Molecular Neurodegeneration, 2025)
# Assays:
# [1] = tested on: αSyn-PFF-inoculated primary cortical neurons; assay: Mitochondrial function (Mito-SOX, TMRM, ATP) in αSyn-PFF-inoculated primary cortical neurons; assay type: cell-based, mouse; details: 1 µM daily
# Method: Primary cortical neurons were isolated from normal E18 mouse cortex (sex undetermined) and cultured using complete culturing kit (cat#: KTC57ECX, TransnetYX Tissue). Briefly, 100,000 cells were seeded on poly-D-lysine coated glass coverslips (PDL15mm, TransnetYX Tissue) and cultured in NbActiv1 medium (NB1, TransnetYX Tissue). Neurons were treated with sonicated human α-Syn-PFF (SPR-322, StressMarq Biosciences) starting on post-seeding Day 5 till Day 14. Starting from post-seeding Day 9, TAT or CS2 peptide was added daily at 1µM. Neurons were fixed on Day 14 and subjected for experiments.
# Cells cultured on coverslips or 24-well plates were washed with DPBS and then incubated with 5 µM Mito-SOX™ Red (Invitrogen, M36008), a mitochondrial superoxide indicator, for 10 min at 37 °C. For cells cultured on coverslips, the images were visualized by microscope, and quantification of images was then carried out using NIH ImageJ software. At least 100 cells per group were counted in the analysis.
# Cells cultured on coverslips or 24-well plates were washed with DPBS and then incubated with 0.25 µM Tetramethylrhodamine, methyl ester (TMRM) (Invitrogen, T668), for 20 min at 37 °C. For cells cultured on coverslips, the images were visualized by microscope, and quantification of images was then carried out using NIH Fiji ImageJ software. At least 100 cells per group were counted in the analysis.
# Cells were seeded in 24-well plates, followed by the indicated treatment. The ATP level in each well was determined using the ATP assay kit according to the manufacturer’s procedures (Cayman Chemical, 700410).
# mThy1-hSNCA mice = assay: Rotarod test in mThy1-hSNCA mice; assay type: in vivo, mouse; details: 3 mg/kg/day s.c.; age of 10-month; n = 13–15 mice/group; vs TAT
# Method: C57BL/6 N-Tg (Thy1-SNCA)15Mjff/J (JAX: 017682) breeders (C57Bl/6NJ genetic background) were purchased from Jackson Laboratories. The mice were mated, bred, and genotyped in the animal facility of Case Western Reserve University. All mice were maintained at a 12-hour light/dark cycle (on 6 am, off 6 pm). All randomization and peptide treatments in mThy1-hSNCA mice were prepared by an experimenter not associated with the behavioral and neuropathology analysis. Only male mice were used in the study. mThy1-hSNCA transgenic mice and their age-matched WT littermates were implanted with a 28-day subcutaneous osmotic pump (Alzet, Cupertino CA, Model 2004) containing either TAT control peptide or CS2 peptide, which delivered the peptides at indicated rate (1 or 3 or 10 mg/kg/day). The pump was replaced once every four weeks. All mice were sacrificed at age of 10-month for neuropathology assessment.
# Mice were trained for the accelerating test on Day 1–3. On Day 5, motor coordination was assessed in TAT or CS2 treated mThy1-hSNCA transgenic mice and their age-matched wild-type littermates at age of 10-month, by measuring latency on a rotarod in an accelerated program for 300 s. Body weights of mThy1-hSNCA mice and wild-type littermates were recorded throughout the study period.
# Fig. 7 CS2 treatment is protective in mThy1-hSNCA mouse model of PD. […]
smiles,measurement,setting,value
"CC(C)[C@H](NC(=O)CNC(=O)CNC(=O)CCCCCNC(=O)[C@H](CCCNC(=N)N)NC(=O)[C@H](CCCNC(=N)N)NC(=O)[C@H](CCCNC(=N)N)NC(=O)[C@H](CCC(N)=O)NC(=O)[C@H](CCCNC(=N)N)NC(=O)[C@H](CCCNC(=N)N)NC(=O)[C@H](CCCCN)NC(=O)[C@H](CCCCN)NC(=O)[C@H](CCCNC(=N)N)NC(=O)CNC(=O)[C@@H](N)Cc1ccc(O)cc1)C(=O)N[C@H](C(=O)N[C@H](C(=O)N[C@@H](C)C(=O)O)[C@@H](C)O)C(C)C [CS2, TAT-C6-GGVVTA]","ATP content, PFF neurons",[1]; n = 4,rescued mitochondrial membrane potential and ATP content
same,"mitochondrial ROS, PFF neurons","[1]; Mito-SOX, n = 90-100 neurons per group",reduced mitochondrial ROS
same,"mitochondrial membrane potential, PFF neurons","[1]; TMRM, n = 90-100 neurons per group",rescued mitochondrial membrane potential
same,motor coordination on rotarod (latency to fall),mThy1-hSNCA mice,enhanced motor coordination
